Source: patent publication US20220389007A1, “INHIBITORS OF HUMAN IMMUNODEFICIENCY VIRUS REPLICATION” (VIIV HEALTHCARE UK (No. 5) LIMITED, priority 2019, published 2022)

Columns and labels:
[1] = Compound cytotoxicity, XTT-based colorimetric assay; assay type: cell-based; settings: human; uninfected MT2 cells, day 4, XTT assay
Experimental: Compound cytotoxicity and the corresponding CC50 values were determined using the same protocol as described in the antiviral assay except that uninfected cells were used. Cytotoxicity was assessed on day 4 in uninfected MT2 cells by using a XTT (2,3-bis[2-Methoxy-4-nitro-5-sulfophenyl]-2H-tetrazolium-5-carboxyanilide inner salt)-based colorimetric assay (Sigma-Aldrich, St Louis, Mo.).

[2] = system: recombinant NL4-3 virus; experiment: HIV cell culture assay (antiviral activity, luciferase readout); assay type: cell-based; settings: Human immunodeficiency virus 1, NL43, MT2, MT-2 cells infected for 4-5 days with recombinant NL4-3 virus carrying Renilla luciferase
Experimental: HIV cell culture assay—MT-2 cells, 293T cells and the proviral DNA clone of NL4-3 virus were obtained from the NIH AIDS Research and Reference Reagent Program. MT-2 cells were propagated in RPMI 1640 media supplemented with 10% heat inactivated fetal bovine serum (FBS), […]. The 293T cells were propagated in DMEM media supplemented with 10% heat inactivated FBS, […]. A recombinant NL4-3 proviral clone, in which a section of the nef gene was replaced with the Renilla luciferase gene, was used to make the reference virus used in these studies. The recombinant virus was prepared through transfection of the recombinant NL4-3 proviral clone into 293T cells using Transit-293 Transfection Reagent from Mirus Bio LLC (Madison, WI). Supernatent was harvested after 2-3 days and the amount of virus present was titered in MT-2 cells using luciferase enzyme activity as a marker by measuring luciferase enzyme activity. Luciferase was quantitated using the EnduRen Live Cell Substrate from Promega (Madison, Wis.). Antiviral activities of compounds toward the recombinant virus were quantified by measuring luciferase activity in MT-2 cells infected for 4-5 days with the recombinant virus in the presence of serial dilutions of the compound.
The 50% effective concentration (EC50) was calculated by using the exponential form of the median effect equation where (Fa)=1/[1+(ED50/drug conc.)m] (Johnson VA, Byington RT. Infectivity Assay. In Techniques in HIV Research. ed. Aldovini A, Walker BD. 71-76. New York: Stockton Press. 1990). The 50% inhibitory concentration (EC50) was calculated by using the exponential form of the median effect equation where percent inhibition=1/[1+(EC50/drug concentration)m], where m is a parameter that reflects the slope of the concentration-response curve.

Structure (SMILES) | CC50 at 4 day [1] [nM] | EC50 [2] [nM]
Cc1cccc(-c2ccc3c(=O)n(-c4ccc(Cl)c5c(NS(C)(=O)=O)nn(C)c45)c([C@H](Cc4cc(F)cc(F)c4)NC(=O)Cn4nc(C(F)F)c5c4C(F)(F)[C@@H]4C[C@H]54)nc3n2)n1 (atropisomer, axis not shown; (P)) [Example 31, N-((S)-1-((3P)-3-(4-chloro-1-methyl-3-(methylsulfonamido)-1H-indazol-7-yl)-7-(6-methylpyridin-2-yl)-4-oxo-3,4-dihydropyrido[2,3-d]pyrimidin-2-yl)-2-(3,5-difluorophenyl)ethyl)-2-((3bS,4aR)-3-(difluoromethyl)-5,5-difluoro-3b,4,4a,5-tetrahydro-1H-cyclopropa[3,4]cyclopenta[1,2-c]pyrazol-1-yl)acetamide] | > 100 | 0.031
COc1cncc(-c2ccc3c(=O)n(-c4ccc(Cl)c5c(NS(C)(=O)=O)nn(C)c45)c([C@H](Cc4cc(F)cc(F)c4)NC(=O)Cn4nc(C(F)F)c5c4C(F)(F)[C@@H]4C[C@H]54)nc3n2)n1 (atropisomer, axis not shown; (P)) [Example 54, N-((S)-1-((3P)-3-(4-chloro-1-methyl-3-(methylsulfonamido)-1H-indazol-7-yl)-7-(6-methoxypyrazin-2-yl)-4-oxo-3,4-dihydropyrido[2,3-d]pyrimidin-2-yl)-2-(3,5-difluorophenyl)ethyl)-2-((3bS,4aR)-3-(difluoromethyl)-5,5-difluoro-3b,4,4a,5-tetrahydro-1H-cyclopropa[3,4]cyclopenta[1,2-c]pyrazol-1-yl)acetamide] | > 100 | 0.039
Cn1nc(NS(C)(=O)=O)c2c(Cl)ccc(-n3c([C@H](Cc4cc(F)cc(F)c4)NC(=O)Cn4nc(C(F)F)c5c4C(F)(F)[C@@H]4C[C@H]54)nc4nc(-c5nc(C(F)(F)F)ccc5F)ccc4c3=O)c21 (atropisomer, axis not shown; (P)) [Example 36, N-((S)-1-((3P)-3-(4-chloro-1-methyl-3-(methylsulfonamido)-1H-indazol-7-yl)-7-(3-fluoro-6-(trifluoromethyl)pyridin-2-yl)-4-oxo-3,4-dihydropyrido[2,3-d]pyrimidin-2-yl)-2-(3,5-difluorophenyl)ethyl)-2-((3bS,4aR)-3-(difluoromethyl)-5,5-difluoro-3b,4,4a,5-tetrahydro-1H-cyclopropa[3,4]cyclopenta[1,2-c]pyrazol-1-yl)acetamide] | > 100 | 0.045
Cn1nc(NS(C)(=O)=O)c2c(Cl)ccc(-n3c([C@H](Cc4cc(F)cc(F)c4)NC(=O)Cn4nc(C(F)F)c5c4C(F)(F)[C@@H]4C[C@H]54)nc4nc(-c5ccc(S(C)(=O)=O)cc5)ccc4c3=O)c21 (atropisomer, axis not shown; (P)) [Example 35, N-((S)-1-((3P)-3-(4-chloro-1-methyl-3-(methylsulfonamido)-1H-indazol-7-yl)-7-(4-(methylsuIfonyl)phenyl)-4-oxo-3,4-dihydropyrido[2,3-d]pyrimidin-2-yl)-2-(3,5-difluorophenyl)ethyl)-2-((3bS,4aR)-3-(difluoromethyl)-5,5-difluoro-3b,4,4a,5-tetrahydro-1H-cyclopropa[3,4]cyclopenta[1,2-c]pyrazol-1-yl)acetamide] | > 100 | 0.14
Cn1nc(NS(C)(=O)=O)c2c(Cl)ccc(-n3c([C@H](Cc4cc(F)cc(F)c4)NC(=O)Cn4nc(C(F)F)c5c4C(F)(F)[C@@H]4C[C@H]54)nc4ncc(-c5cccc(C(F)(F)F)n5)cc4c3=O)c21 (atropisomer, axis not shown; (P)) [Example 1, N-((S)-1-((3P)-3-(4-chloro-1-methyl-3-(methylsulfonamido)-1H-indazol-7-yl)-4-oxo-6-(6-(trifluoromethyl)pyridin-2-yl)-3,4-dihydropyrido[2,3-d]pyrimidin-2-yl)-2-(3,5-difluorophenyl)ethyl)-2-((3bS,4aR)-3-(difluoromethyl)-5,5-difluoro-3b,4,4a,5-tetrahydro-1H-cyclopropa[3,4]cyclopenta[1,2-c]pyrazol-1-yl)acetamide] | > 100 | 0.055
Cn1nc(NS(C)(=O)=O)c2c(Cl)ccc(-n3c([C@H](Cc4cc(F)cc(F)c4)NC(=O)Cn4nc(C(F)F)c5c4C(F)(F)[C@@H]4C[C@H]54)nc4nc(-c5ccc(F)c(C(F)(F)F)c5)ccc4c3=O)c21 (atropisomer, axis not shown; (P)) [Example 19, N-((S)-1-((3P)-3-(4-chloro-1-methyl-3-(methylsulfonamido)-1H-indazol-7-yl)-7-(4-fluoro-3-(trifluoromethyl)phenyl)-4-oxo-3,4-dihydropyrido[2,3-d]pyrimidin-2-yl)-2-(3,5-difluorophenyl)ethyl)-2-((3bS,4aR)-3-(difluoromethyl)-5,5-difluoro-3b,4,4a,5-tetrahydro-1H-cyclopropa[3,4]cyclopenta[1,2-c]pyrazol-1-yl)acetamide] | > 100 | 0.23
Cc1cc(-c2ccc3c(=O)n(-c4ccc(Cl)c5c(NS(C)(=O)=O)nn(C)c45)c([C@H](Cc4cc(F)cc(F)c4)NC(=O)Cn4nc(C(F)F)c5c4C(F)(F)[C@@H]4C[C@H]54)nc3n2)n(CC(C)(F)F)n1 (single isomer, unassigned) [Example 97] | > 100 | 12
Cn1nc(NS(C)(=O)=O)c2c(Cl)ccc(-n3c([C@H](Cc4cc(F)cc(F)c4)NC(=O)Cn4nc(C(F)F)c5c4C(F)(F)[C@@H]4C[C@H]54)nc4nc(-c5cnc(C(C)(F)F)s5)ccc4c3=O)c21 (atropisomer, axis not shown; (P)) [Example 99, N-((S)-1-((3P)-3-(4-chloro-1-methyl-3-(methylsulfonamido)-1H-indazol-7-yl)-7-(2-(1,1-difluoroethyl)thiazol-5-yl)-4-oxo-3,4-dihydropyrido[2,3-d]pyrimidin-2-yl)-2-(3,5-difluorophenyl)ethyl)-2-((3bS,4aR)-3-(difluoromethyl)-5,5-difluoro-3b,4,4a,5-tetrahydro-1H-cyclopropa[3,4]cyclopenta[1,2-c]pyrazol-1-yl)acetamide] | > 100 | 0.062
Cn1nc(NS(C)(=O)=O)c2c(Cl)ccc(-n3c([C@H](Cc4cc(F)cc(F)c4)NC(=O)Cn4nc(C(F)F)c5c4C(F)(F)[C@@H]4C[C@H]54)nc4nc(-c5nccc(C(F)F)n5)ccc4c3=O)c21 (atropisomer, axis not shown; (P)) [Example 6, N-((S)-1-((3P)-3-(4-chloro-1-methyl-3-(methylsulfonamido)-1H-indazol-7-yl)-7-(4-(difluoromethyl)pyrimidin-2-yl)-4-oxo-3,4-dihydropyrido[2,3-d]pyrimidin-2-yl)-2-(3,5-difluorophenyl)ethyl)-2-((3bS,4aR)-3-(difluoromethyl)-5,5-difluoro-3b,4,4a,5-tetrahydro-1H-cyclopropa[3,4]cyclopenta[1,2-c]pyrazol-1-yl)acetamide] | > 100 | 0.023
Cn1nc(NS(C)(=O)=O)c2c(Cl)ccc(-n3c([C@H](Cc4cc(F)cc(F)c4)NC(=O)Cn4nc(C(F)F)c5c4C(F)(F)[C@@H]4C[C@H]54)nc4nc(-c5ccnc(C(F)(F)F)n5)ccc4c3=O)c21 (atropisomer, axis not shown; (P)) [Example 37, N-((S)-1-((3P)-3-(4-chloro-1-methyl-3-(methylsulfonamido)-1H-indazol-7-yl)-4-oxo-7-(2-(trifluoromethyl)pyrimidin-4-yl)-3,4-dihydropyrido[2,3-d]pyrimidin-2-yl)-2-(3,5-difluorophenyl)ethyl)-2-((3bS,4aR)-3-(difluoromethyl)-5,5-difluoro-3b,4,4a,5-tetrahydro-1H-cyclopropa[3,4]cyclopenta[1,2-c]pyrazol-1-yl)acetamide] | > 100 | 0.11
Cn1nc(NS(C)(=O)=O)c2c(Cl)ccc(-n3c([C@H](Cc4cc(F)cc(F)c4)NC(=O)Cn4nc(C(F)F)c5c4C(F)(F)[C@@H]4C[C@H]54)nc4nc(-n5cc(C(F)(F)F)cn5)ccc4c3=O)c21 (atropisomer, axis not shown; (P)) [Example 66, N-((S)-1-((3P)-3-(4-chloro-1-methyl-3-(methylsulfonamido)-1H-indazol-7-yl)-4-oxo-7-(4-(trifluoromethyl)-1H-pyrazol-1-yl)-3,4-dihydropyrido[2,3-d]pyrimidin-2-yl)-2-(3,5-difluorophenyl)ethyl)-2-((3bS,4aR)-3-(difluoromethyl)-5,5-difluoro-3b,4,4a,5-tetrahydro-1H-cyclopropa[3,4]cyclopenta[1,2-c]pyrazol-1-yl)acetamide] | > 100 | 0.07
